Drawing on US7928140B2, “Benzothiazole PI3 kinase modulators for cancer treatment” (Amgen Inc., priority 2007, dated 2011), this text covers IC50 for 27 compounds.

pIC50: −log10 of the molar value.

In general, pIC50 refers to −log10 of the IC50, conventionally taken in molar units.

The target in one test is T1, PI3K α (Homo sapiens, UniProt P42336).
T1 construct: Full length p110 subunits of PI3K α, β and δ, N-terminally labeled with polyHis tag; polyHis (N); made in house; host or cells: Sf9 insect cells (baculovirus)
T1 sequence (P42336 whole entry, species assumed): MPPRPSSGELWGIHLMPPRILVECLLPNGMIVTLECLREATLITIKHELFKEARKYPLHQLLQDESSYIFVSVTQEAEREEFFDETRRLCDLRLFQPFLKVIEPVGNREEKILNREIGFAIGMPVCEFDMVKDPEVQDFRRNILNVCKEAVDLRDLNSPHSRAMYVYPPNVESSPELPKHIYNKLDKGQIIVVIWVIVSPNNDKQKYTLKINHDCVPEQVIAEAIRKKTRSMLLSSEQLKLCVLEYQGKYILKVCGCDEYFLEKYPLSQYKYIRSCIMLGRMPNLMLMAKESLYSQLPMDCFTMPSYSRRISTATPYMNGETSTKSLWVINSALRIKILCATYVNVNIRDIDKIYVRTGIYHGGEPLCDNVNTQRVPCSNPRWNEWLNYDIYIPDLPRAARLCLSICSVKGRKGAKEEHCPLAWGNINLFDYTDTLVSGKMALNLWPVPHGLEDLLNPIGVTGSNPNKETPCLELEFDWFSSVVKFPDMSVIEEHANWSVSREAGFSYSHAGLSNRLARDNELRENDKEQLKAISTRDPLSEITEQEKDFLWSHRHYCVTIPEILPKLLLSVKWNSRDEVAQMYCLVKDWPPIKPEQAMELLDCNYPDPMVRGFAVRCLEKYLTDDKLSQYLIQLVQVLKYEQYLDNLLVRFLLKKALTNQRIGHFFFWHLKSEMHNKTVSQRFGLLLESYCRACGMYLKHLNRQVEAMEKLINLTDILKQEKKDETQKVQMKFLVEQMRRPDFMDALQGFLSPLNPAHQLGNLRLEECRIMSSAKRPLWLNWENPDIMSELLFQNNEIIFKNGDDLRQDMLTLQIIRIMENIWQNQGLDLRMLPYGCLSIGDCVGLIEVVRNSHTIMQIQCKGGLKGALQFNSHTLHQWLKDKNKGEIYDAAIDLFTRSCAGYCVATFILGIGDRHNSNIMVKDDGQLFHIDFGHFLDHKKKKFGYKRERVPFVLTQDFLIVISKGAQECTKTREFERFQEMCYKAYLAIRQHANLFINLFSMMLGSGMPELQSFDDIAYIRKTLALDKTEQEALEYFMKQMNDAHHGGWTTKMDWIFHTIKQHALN
T1 sequence (P27986 whole entry partner, species assumed): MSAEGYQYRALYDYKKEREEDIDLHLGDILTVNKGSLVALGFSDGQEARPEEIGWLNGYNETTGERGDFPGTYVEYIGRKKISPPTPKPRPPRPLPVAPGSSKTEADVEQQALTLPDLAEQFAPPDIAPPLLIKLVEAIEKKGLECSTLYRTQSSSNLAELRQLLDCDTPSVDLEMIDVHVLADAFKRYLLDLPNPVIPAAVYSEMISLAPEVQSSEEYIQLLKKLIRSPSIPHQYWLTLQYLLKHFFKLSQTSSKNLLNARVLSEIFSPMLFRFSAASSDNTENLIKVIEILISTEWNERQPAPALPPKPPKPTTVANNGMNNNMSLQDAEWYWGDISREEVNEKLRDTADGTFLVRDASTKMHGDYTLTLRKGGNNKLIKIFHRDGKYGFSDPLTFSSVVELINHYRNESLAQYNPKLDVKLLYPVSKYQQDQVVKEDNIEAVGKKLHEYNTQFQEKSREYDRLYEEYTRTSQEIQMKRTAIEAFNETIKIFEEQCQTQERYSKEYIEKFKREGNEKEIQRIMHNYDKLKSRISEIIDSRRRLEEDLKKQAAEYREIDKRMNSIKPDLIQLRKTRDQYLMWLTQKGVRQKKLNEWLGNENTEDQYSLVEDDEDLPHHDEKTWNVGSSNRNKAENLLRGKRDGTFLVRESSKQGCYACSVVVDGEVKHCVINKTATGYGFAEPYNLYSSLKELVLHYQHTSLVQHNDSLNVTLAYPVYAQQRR
In words: In vitro PI3 kinase enzyme assay (alpha), ATP loss, bioluminescence.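 Also: purified p110α/p85 heterodimer acting on PtdIns(4,5)P2 at room temperature, remaining ATP read by luminescence, inhibition scaled between compound-free wells with and without enzyme.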 The class given is biochemical. Conditions: read-out: PI3Kα ATP loss IC50.

For another test, the target named is T2, PI3K β (Homo sapiens, UniProt P42338).
T2 construct: Full length p110 subunits of PI3K α, β and δ, N-terminally labeled with polyHis tag; polyHis (N); made in house; host or cells: Sf9 insect cells (baculovirus)
T2 sequence (P42338 whole entry): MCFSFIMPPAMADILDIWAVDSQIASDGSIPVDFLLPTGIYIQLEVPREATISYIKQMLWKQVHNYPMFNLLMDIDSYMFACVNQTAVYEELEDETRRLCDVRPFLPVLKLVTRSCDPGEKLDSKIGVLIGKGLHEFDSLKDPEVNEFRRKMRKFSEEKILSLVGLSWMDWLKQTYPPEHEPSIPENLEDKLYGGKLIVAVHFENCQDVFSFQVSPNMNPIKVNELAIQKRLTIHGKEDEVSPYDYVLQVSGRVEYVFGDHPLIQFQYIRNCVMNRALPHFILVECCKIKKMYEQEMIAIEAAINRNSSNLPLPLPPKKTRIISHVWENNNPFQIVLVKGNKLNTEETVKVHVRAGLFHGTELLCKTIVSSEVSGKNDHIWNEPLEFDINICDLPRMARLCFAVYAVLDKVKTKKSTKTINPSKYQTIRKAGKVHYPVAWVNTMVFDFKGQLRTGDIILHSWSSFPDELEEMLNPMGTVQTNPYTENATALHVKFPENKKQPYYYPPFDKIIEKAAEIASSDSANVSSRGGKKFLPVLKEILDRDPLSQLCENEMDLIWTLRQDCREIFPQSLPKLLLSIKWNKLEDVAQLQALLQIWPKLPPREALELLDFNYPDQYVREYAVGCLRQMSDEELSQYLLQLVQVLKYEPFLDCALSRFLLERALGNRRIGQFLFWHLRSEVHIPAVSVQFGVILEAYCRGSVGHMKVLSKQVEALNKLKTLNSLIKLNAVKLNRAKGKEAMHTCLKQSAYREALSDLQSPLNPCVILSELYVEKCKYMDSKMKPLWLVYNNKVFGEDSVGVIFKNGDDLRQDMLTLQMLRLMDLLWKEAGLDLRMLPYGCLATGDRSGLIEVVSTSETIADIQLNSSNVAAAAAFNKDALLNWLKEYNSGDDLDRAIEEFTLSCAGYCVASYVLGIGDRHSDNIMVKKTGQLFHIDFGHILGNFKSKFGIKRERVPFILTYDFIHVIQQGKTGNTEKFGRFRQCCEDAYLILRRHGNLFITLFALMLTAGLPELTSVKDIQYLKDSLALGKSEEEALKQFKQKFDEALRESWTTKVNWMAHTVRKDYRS
T2 sequence (P27986 whole entry partner): as the sequence (P27986 whole entry partner, species assumed) above
The experiment in a line: In vitro PI3 kinase enzyme assay (beta), ATP loss, bioluminescence.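 Also: purified p110β/p85 heterodimer with PtdIns(4,5)P2 as acceptor, incubated at room temperature, leftover ATP read by luminescence, inhibition scaled to compound-free wells with and without enzyme.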 It is filed as biochemical. As to conditions: read-out: PI3Kβ ATP loss IC50.

In the case of `CC(=O)Nc1nc2ccc(-c3cc(C)nc(N)n3)cc2s1` [Example 101, N-(6-(2-Amino-6-methylpyrimidin-4-yl)benzo[d]thiazol-2-yl)acetamide], the values for the negative logarithm of the IC50 (pIC50) at PI3K α and at PI3K β were 5.38 and 5.00, respectively.

On to `CC(=O)Nc1nc2ccc(-c3cncc(N(C)S(=O)(=O)c4ccc(Cl)cc4)c3)cc2s1` [Example 220, N-(6-(5-(4-chloro-N-methylphenylsulfonamido)pyridin-3-yl)benzo[d]thiazol-2-yl)acetamide], for which the pIC50 was 6.27 at PI3K α and 5.48 on PI3K β.

Turning to `CC(=O)Nc1nc2ccc(-c3cncc(OC(C)CN4CCOCC4)c3)cc2s1` (stereo not drawn) [Example 231, N-(6-(5-(1-morpholinopropan-2-yloxy)pyridin-3-yl)benzo[d]thiazol-2-yl)acetamide], the pIC50 is 6.20 on PI3K α and 4.80 on PI3K β.

Turning to `CC(=O)Nc1nc2ccc(-c3cc(OC(C)C#N)cnc3Cl)cc2s1` (stereo not drawn) [Example 291, N-(6-(2-chloro-5-(1-cyanoethoxy)pyridin-3-yl)benzo[d]thiazol-2-yl)acetamide], the pIC50 was 6.01 on PI3K α and 5.42 at PI3K β.

Take `CC(=O)Nc1nc2ccc(-c3ccnc(Sc4ccc(C)c(C)c4)n3)cc2s1` [Example 128, N-(6-(2-((3,4-dimethylphenyl)sulfanyl)-4-pyrimidinyl)-1,3-benzothiazol-2-yl)acetamide]: the pIC50 at PI3K α is 7.47; at PI3K β, 6.28.

Take `COCCOCOc1cc(-c2ccc3nc(NC(C)=O)sc3c2)cnc1Cl` [Example 292, N-(6-(6-chloro-5-((2-methoxyethoxy)methoxy)pyridin-3-yl)benzo[d]thiazol-2-yl)acetamide]: the values for the pIC50 on PI3K α and at PI3K β were 6.78 and 5.68, respectively.

As to `CC(=O)Nc1nc2ccc(-c3cnc(OCCN(C)C)c(NC(C)C)c3)cc2s1` [Example 159, N-(6-(6-(2-(dimethylamino)ethoxy)-5-(isopropylamino)pyridin-3-yl)benzo[d]thiazol-2-yl)acetamide], the negative-log IC50 (pIC50) at PI3K α is 6.04; on PI3K β, 5.43.

As to `CC(=O)Nc1nc2ccc(-c3cncc(OCCN4CCOC4=O)c3)cc2s1` [Example 232, N-(6-(5-(2-(2-oxooxazolidin-3-yl)ethoxy)pyridin-3-yl)benzo[d]thiazol-2-yl)acetamide], the pIC50 at PI3K α is 6.08; on PI3K β, 5.13.

Take `CC(=O)Nc1nc2ccc(-c3cncc(OCCN4CCC(F)C4=O)c3)cc2s1` (stereo not drawn) [Example 255]: the results for the negative logarithm of the IC50 (pIC50) on PI3K α and on PI3K β were 6.10 and < 4.40, respectively.

Take `COc1ccc(S(=O)(=O)Nc2cc(-c3ccc4nc(SC)sc4c3)cnc2Cl)cc1` [Example 327, N-(2-chloro-5-(2-(methylsulfanyl)-1,3-benzothiazol-6-yl)-3-pyridinyl)-4-methoxybenzenesulfonamide]: the figures for the pIC50 on PI3K α and at PI3K β were 6.65 and 6.42, respectively.

As for `CC(=O)Nc1nc2ccc(-c3cncc(OCCN4CCC(C)C4=O)c3)cc2s1` (stereo not drawn) [Example 253], the figures for the pIC50 on PI3K α and on PI3K β were 5.81 and 4.34, respectively.

Regarding `COCCCNc1nccc(-c2ccc3nc(NC(C)=O)sc3c2)n1` [Example 46, N-(6-(2-((3-methoxypropyl)amino)-4-pyrimidinyl)-1,3-benzothiazol-2-yl)acetamide], the pIC50 was 5.92 at PI3K α and 4.69 on PI3K β.

For `CC(=O)Nc1nc2ccc(-c3ccnc(Sc4ccccc4C(C)(C)C)n3)cc2s1` [Example 30, N-(6-(2-((2-tert-butylphenyl)sulfanyl)-4-pyrimidinyl)-1,3-benzothiazol-2-yl)acetamide], the pIC50 at PI3K α was 6.04; on PI3K β, 5.85.

Consider `CC(=O)Nc1nc2ccc(-c3ccnc(OCCO)n3)cc2s1` [Example 104, N-(6-(2-(2-hydroxyethoxy)-4-pyrimidinyl)-1,3-benzothiazol-2-yl)acetamide], for which the pIC50 on PI3K α is 6.27; at PI3K β it was < 4.40.

For the compound `CC(=O)Nc1nc2ccc(-c3cncc(OCCN4CCCCC4)c3)cc2s1` [Example 233, N-(6-(5-(2-(piperidin-1-yl)ethoxy)pyridin-3-yl)benzo[d]thiazol-2-yl)acetamide], the negative-log IC50 (pIC50) was 5.38 at PI3K α and 4.92 on PI3K β.

As to `COc1cccc(-c2cccc3nc(NC(C)=O)sc23)c1` [Example 96, N-(7-(3-methoxyphenyl)-1,3-benzothiazol-2-yl)acetamide], the figures for the pIC50 at PI3K α and on PI3K β were 5.78 and < 4.40, respectively.

On to `COCCNc1nccc(-c2ccc3nc(N)sc3c2)n1` [Example 48, 6-(2-((2-methoxyethyl)amino)-4-pyrimidinyl)-1,3-benzothiazol-2-amine], for which the negative-log IC50 (pIC50) on PI3K α is 4.74; at PI3K β, < 4.40.

As for `CC(=O)Nc1nc2ccc(-c3csc(S(=O)(=O)c4ccccc4F)n3)cc2s1` [Example 63, N-(6-(2-(2-fluorophenylsulfonyl)thiazol-4-yl)benzo[d]thiazol-2-yl)acetamide], the values for the negative-log IC50 (pIC50) at PI3K α and on PI3K β were 6.26 and 5.33, respectively.

On to `CC(=O)Nc1nc2ccc(-c3cncc(OCCN4CCCC4=O)c3)cc2s1` [Example 229, N-(6-(5-(2-(2-oxopyrrolidin-1-yl)ethoxy)pyridin-3-yl)benzo[d]thiazol-2-yl)acetamide], for which the negative logarithm of the IC50 (pIC50) was 5.97 on PI3K α and 4.82 on PI3K β.

Turning to `CC(=O)c1cncc(-c2ccc3ncsc3c2)c1` [Example 336, 1-(5-(1,3-benzothiazol-6-yl)-3-pyridinyl)ethanone], the pIC50 is 5.59 on PI3K α and 4.88 at PI3K β.

For `Nc1nc2ccc(-c3ccnc(NCCCc4ccccc4)n3)cc2s1` [Example 45, 6-(2-(3-Phenylpropylamino)pyrimidin-4-yl)benzo[d]thiazol-2-amine], the pIC50 at PI3K α was 5.71; at PI3K β it was 6.34.

In the case of `CC(=O)Nc1nc2ccc(-c3ccnc(NN4CCCCC4)n3)cc2s1` [Example 265, N-(6-(2-(piperidin-1-ylamino)pyrimidin-4-yl)benzo[d]thiazol-2-yl)acetamide], the values for the pIC50 at PI3K α and on PI3K β were 5.59 and 4.39, respectively.

As for `Nc1nc2ccc(-c3cccc(NS(=O)(=O)c4ccccc4F)n3)cc2s1` [Example 72, N-(6-(2-amino-1,3-benzothiazol-6-yl)-2-pyridinyl)-2-fluorobenzenesulfonamide], the pIC50 at PI3K α was 5.64; on PI3K β, 5.80.

In the case of `COc1ccc(-c2cccc3nc(NC(C)=O)sc23)cc1` [Example 95, N-(7-(4-Methoxyphenyl)benzo[d]thiazol-2-yl)acetamide], the negative logarithm of the IC50 (pIC50) is 5.18 on PI3K α and < 4.40 on PI3K β.

For `COc1ccc(S(=O)(=O)Nc2cc(-c3ccc4nc(NC(C)C)sc4c3)cnc2Cl)cc1` [Example 305, N-(2-chloro-5-(2-((1-methylethyl)amino)-1,3-benzothiazol-6-yl)-3-pyridinyl)-4-methoxybenzenesulfonamide], the pIC50 was 7.23 at PI3K α and 6.65 on PI3K β.

Take `COc1ccc(S(=O)(=O)Nc2nccc(-c3ccc4nc(NC(C)=O)sc4c3)n2)cc1OC` [Example 87, N-(6-(2-(((3,4-dimethoxyphenyl)sulfonyl)amino)-4-pyrimidinyl)-1,3-benzothiazol-2-yl)acetamide]: the values for the negative logarithm of the IC50 (pIC50) on PI3K α and at PI3K β were 6.82 and 5.14, respectively.

Turning to `CC(C)(C)OC(=O)Nc1nc2ccc(-c3nnc(NCc4ccccc4)o3)cc2s1` [Example 169, tert-Butyl 6-(5-(benzylamino)-1,3,4-oxadiazol-2-yl)benzo[d]thiazol-2-ylcarbamate], the results for the negative logarithm of the IC50 (pIC50) on PI3K α and on PI3K β were 5.37 and 5.57, respectively.
